{"source": "patent US20080113900A1", "about": "“Pharmaceutical compositions and therapeutic applications for the use of a synthetic vitamin B12 derivative, glutathionylcobalamin” (priority 2006, published 2008)", "key": {"SK-HEP-1 cells": {"test_system": "SK-HEP-1 cells", "assay": "Protection of endothelial cells from homocysteine-induced cell death (MTS assay)", "type": "cell-based, human", "settings": "for Mean (FIG. 14a, protection of SK-HEP-1 cells from Hcy in the presence of folate): folate 25 μM present, [GSCbl] = 15 μM, [CNCbl] = 15 μM, [MeCbl] = 12.5 μM, [HOCbl] = 17.5 μM, [GSH] = 100 μM; for Absorbance at 490 nm: single replicates Y1-Y6", "description": "The effect of a constant concentration of NACCbl and GSCbl to protect cells against variable concentrations of homocysteine was assessed. […] Cell viability was determined by MTS® assay. Data shown in FIG. 4 are representative of means ±SE of 6 independent samples. FIG. 4 illustrates that NACCbl (▪) and GSCbl (▴) protect endothelial cells from the effect of homocysteine. […] Cell viability was determined by MTS® assay. […] There was a decrease in protection as homocysteine concentration increased, but there was still ˜60% survival at 50 μM homocysteine.\nThe data was normalized (log 2 and log 10) as shown in FIGS. 16 and 17 and Tables 16 and 17, respectively, below."}, "[1]": {"assay": "Decomposition in PBS at 37° C. monitored by UV/Vis spectrophotometry", "type": "physicochemical", "description": "The decomposition of GSCbl, NACCbl, and HcyCbl in PBS at 37° C. was monitored by UV/Vis spectrophotometry."}, "Hsp70": {"test_system": "Hsp70", "assay": "Hsp70 gene expression (RT-PCR, densitometry)", "settings": "SK-HEP-1; Quercitin 15 μM", "quoted_text": "(§1) Cells were plated into 6-, 12-, or 24-well cell culture clusters, at 2×10^3, 2×10^5, or 1×10^5 cells per well and incubated until 90% confluent. Treatments were applied as above.\n(§2) Following incubation, cells were subjected to mRNA extraction followed by cDNA synthesis for each sample under test. Polymerase chain reaction cDNA templates were prepared for simplex PCR protocol. PCR products were then visualized using a UV Transilluminator and images captured using a Kodak ID gel imaging system. Densitometry and statistical analysis was then performed on each gene expression band image using PSP® v 10.0 running under Windows XP®.\n(§3) mRNA extraction was performed using the Quickprep micro mRNA Purification Kit. Following incubation of cells post-treatment, the media was removed from the cells, adherent cells were re-suspended in 0.4 ml extraction buffer and 0.8 ml elution buffer at 65° C. was added.\nA reaction mixture was prepared in individual microcentrifuge tubes containing 2 cDNA synthesis beads, 32 μl of the mRNA solution and 1 μl of pd(N)6. This mixture was incubated at 37° C. in a water bath for 60 minutes. After incubation, 27 μl of RNase-free DEPC treated water was added to each tube to make a total volume 60 μl. cDNA samples were prepared in duplicate. Sample 1 was used immediately in RT-PCR protocol.\nMicrocentrifuge tubes from puReTaq™Ready-To-Go™ PCR Beads containing one PCR bead were labeled for each sample required. Added to the PCR bead were 17 μl of RNase-free DEPC treated water, 1 μl sense primer, 1 μl anti-sense primer and 5 μl of the cDNA solution. RT-PCR conditions were as follows: Hsp70 and β-actin, pre-treatment step, 94° C. for 1 minute, followed by denaturing at 92° C. for 1 minute, annealing at 60° C. for 1 minute and extension at 72° C. for 1 minute. Total cycles, 30, post-treatment was then carried out at 72° C. for 10 minutes. For Hsp32, pre-treatment step, 95° C. for 2 minutes, followed by denaturing at 94° C. for 30 seconds, annealing at 58° C. for 1 minute and extension at 72° C. for 1 minute. […]"}, "Hsp32": {"test_system": "Hsp32", "assay": "Hsp32 gene expression (RT-PCR, densitometry)", "type": "cell-based, human", "settings": "SK-HEP-1; Sn (IX) protoporphyrin 25 μM; Quercitin 15 μM", "quoted_text": "as §1, §2, §3\nA reaction mixture was prepared in individual microcentrifuge tubes containing 2 cDNA synthesis beads, 32 μl of the mRNA solution and 1 μl of pd(N)6. This mixture was incubated at 37° C. in a water bath for 60 minutes. After incubation, 27 μl of RNase-free DEPC treated water was added to each tube to make a total volume 60 μl. cDNA samples were prepared in duplicate. Sample 1 was used immediately in RT-PCR protocol. Sample 2 was prepared for qPCR protocol by the addition of 150 μl of 95% ice-cold ethanol and stored at −20° C.\nMicrocentrifuge tubes from puReTaq™Ready-To-Go™ PCR Beads containing one PCR bead were labeled for each sample required. Added to the PCR bead were 17 μl of RNase-free DEPC treated water, 1 μl sense primer, 1 μl anti-sense primer and 5 μl of the cDNA solution. RT-PCR conditions were as follows: Hsp70 and β-actin, pre-treatment step, 94° C. for 1 minute, followed by denaturing at 92° C. for 1 minute, annealing at 60° C. for 1 minute and extension at 72° C. for 1 minute. Total cycles, 30, post-treatment was then carried out at 72° C. for 10 minutes. For Hsp32, pre-treatment step, 95° C. for 2 minutes, followed by denaturing at 94° C. for 30 seconds, annealing at 58° C. for 1 minute and extension at 72° C. for 1 minute. Total cycles 45, post treatment was then carried out at 72° C. for 10 minutes. Following RT-PCR, samples were stored at −20° C.\nGels were visualised on a UV Transilluminator. Photographs were stored using a Kodak Digital camera system fitted with a UV filter set connected to a PC. Images were then transferred to the Kodak ID gel imaging system. Densitometry was performed on each gene expression band using PSP™ v10 running under Windows XP®.\nExperiments were conducted using Hsp32 and Hsp 70 gene expression as the basis for study. […] The densitometric data are presented as means ±SEM of n=3 separate experiments. *p<0.05 or **p<0.01, treatment vs. control."}, "[2]": {"settings": "[Hcy] 30 μM, [NACCbl] = 12.5 μM, [NAC] = 45 μM"}, "[3]": {"settings": "Conc. Hcy 0.000, NACCbl 30 μM, NAC 75 μM, n = 6"}, "[4]": {"settings": "Conc. Hcy 1.780, NACCbl 30 μM, NAC 75 μM, n = 6"}, "[5]": {"settings": "Conc. Hcy 3.125, NACCbl 30 μM, NAC 75 μM, n = 6"}, "[6]": {"settings": "Conc. Hcy 6.250, NACCbl 30 μM, NAC 75 μM, n = 6"}, "[7]": {"settings": "Conc. Hcy 12.500, NACCbl 30 μM, NAC 75 μM, n = 6"}, "[8]": {"settings": "Conc. Hcy 25.000, NACCbl 30 μM, NAC 75 μM, n = 6"}, "[9]": {"settings": "Conc. Hcy 50.000, NACCbl 30 μM, NAC 75 μM, n = 6"}, "[10]": {"settings": "Conc. Hcy 100.000, NACCbl 30 μM, NAC 75 μM, n = 6"}, "[11]": {"settings": "Conc. Hcy 200.000, NACCbl 30 μM, NAC 75 μM, n = 6"}}, "note": "Values joined by “and” are separate entries in the source; they are usually repeats but may differ in a detail not shown here. Equal values may be shown once."}
{"smiles": "N[C@@H](CCC(=O)N[C@@H](CS)C(=O)NCC(=O)O)C(=O)O", "note": "[GSH, γ-L-Glutamyl-L-cysteinyl-glycine, reference compound]", "values": [{"measurement": "Mean (FIG. 14a, protection of SK-HEP-1 cells from Hcy in the presence of folate)", "setting": "SK-HEP-1 cells; [2]", "result": 1.409}]}
{"smiles": "C/C1=C2/[N-][C@H]([C@H](CC(N)=O)[C@@]2(C)CCC(=O)NC[C@@H](C)OP(=O)([O-])O[C@H]2[C@@H](O)[C@@H](n3cnc4cc(C)c(C)cc43)O[C@@H]2CO)[C@]2(C)N=C(/C(C)=C3N=C(/C=C4N=C1[C@@H](CCC(N)=O)C\\4(C)C)[C@@H](CCC(N)=O)[C@]\\3(C)CC(N)=O)[C@@H](CCC(N)=O)[C@]2(C)CC(N)=O.[Co+3].[OH-]", "note": "[HOCbl, Hydroxocobalamin, reference compound]", "values": [{"measurement": "Mean (FIG. 14a, protection of SK-HEP-1 cells from Hcy in the presence of folate)", "setting": "SK-HEP-1 cells; [2]", "result": 0.9498}]}
{"smiles": "CC1=C2N=C(C=C3N=C(C(C)=C4[N-]C(C(CC(N)=O)C4(C)CCC(=O)NCC(C)OP(=O)([O-])OC4C(CO)OC(n5cnc6cc(C)c(C)cc65)C4O)C4(C)N=C1C(CCC(N)=O)C4(C)CC(N)=O)C(CCC(N)=O)C3(C)C)C(CCC(N)=O)C2(C)CC(N)=O.NC(CC[S-])C(=O)O.[Co+3]", "note": "[HcyCbl, D,L-homocysteinyl-cobalamin]", "values": [{"measurement": "Kobs", "setting": "[1]", "result": 0.0018, "unit": "min⁻¹"}, {"measurement": "t1/2", "setting": "[1]", "result": 6.6, "unit": "h"}]}
{"smiles": "C/C1=C2/[N-][C@H]([C@H](CC(N)=O)[C@@]2(C)CCC(=O)NC[C@H](C)OP(=O)([O-])O[C@H]2[C@@H](O)[C@@H](n3cnc4cc(C)c(C)cc43)O[C@@H]2CO)[C@]2(C)N=C(/C(C)=C3N=C(/C=C4N=C1[C@@H](CCC(N)=O)C\\4(C)C)[C@@H](CCC(N)=O)[C@]\\3(C)CC(N)=O)[C@@H](CCC(N)=O)[C@]2(C)CC(N)=O.[CH3-].[Co+3]", "note": "[MeCbl, Methylcobalamin, reference compound]", "values": [{"measurement": "Mean (FIG. 14a, protection of SK-HEP-1 cells from Hcy in the presence of folate)", "setting": "SK-HEP-1 cells; [2]", "result": 1.322}]}
{"smiles": "CC(=O)N[C@@H](CS)C(=O)O", "note": "[NAC, N-Acetyl-L-Cysteine, reference compound]", "values": [{"measurement": "Normalized Data Log 2, Mean", "setting": "SK-HEP-1 cells; [3]", "result": 84.288}, {"measurement": "Normalized Data Log 10, Mean", "setting": "SK-HEP-1 cells; [3]", "result": 100.000}, {"measurement": "Normalized Data Log 2, Mean", "setting": "SK-HEP-1 cells; [4]", "result": 69.880}, {"measurement": "Normalized Data Log 10, Mean", "setting": "SK-HEP-1 cells; [4]", "result": 83.752}, {"measurement": "Normalized Data Log 2, Mean", "setting": "SK-HEP-1 cells; [5]", "result": 60.687}, {"measurement": "Normalized Data Log 10, Mean", "setting": "SK-HEP-1 cells; [5]", "result": 73.385}, {"measurement": "Normalized Data Log 2, Mean", "setting": "SK-HEP-1 cells; [6]", "result": 58.837}, {"measurement": "Normalized Data Log 10, Mean", "setting": "SK-HEP-1 cells; [6]", "result": 71.298}, {"measurement": "Normalized Data Log 2, Mean", "setting": "SK-HEP-1 cells; [7]", "result": 45.397}, {"measurement": "Normalized Data Log 10, Mean", "setting": "SK-HEP-1 cells; [7]", "result": 56.141}, {"measurement": "Normalized Data Log 2, Mean", "setting": "SK-HEP-1 cells; [8]", "result": 41.900}, {"measurement": "Normalized Data Log 10, Mean", "setting": "SK-HEP-1 cells; [8]", "result": 52.198}, {"measurement": "Normalized Data Log 2, Mean", "setting": "SK-HEP-1 cells; [9]", "result": 24.035}, {"measurement": "Normalized Data Log 10, Mean", "setting": "SK-HEP-1 cells; [9]", "result": 32.051}, {"measurement": "Normalized Data Log 2, Mean", "setting": "SK-HEP-1 cells; [10]", "result": 13.738}, {"measurement": "Normalized Data Log 10, Mean", "setting": "SK-HEP-1 cells; [10]", "result": 20.439}, {"measurement": "Normalized Data Log 2, Mean", "setting": "SK-HEP-1 cells; [11]", "result": 11.135}, {"measurement": "Normalized Data Log 10, Mean", "setting": "SK-HEP-1 cells; [11]", "result": 17.503}, {"measurement": "Absorbance at 490 nm", "setting": "SK-HEP-1 cells; Conc. of Hcy 0.000, NACCbl 30 μM, NAC 75 μM", "result": "2.592 and 2.476 and 2.437 and 2.678 and 2.336 and 2.447"}, {"measurement": "Absorbance at 490 nm", "setting": "SK-HEP-1 cells; Conc. of Hcy 1.780, NACCbl 30 μM, NAC 75 μM", "result": "2.225 and 1.903 and 1.947 and 2.310 and 2.187 and 2.206"}, {"measurement": "Absorbance at 490 nm", "setting": "SK-HEP-1 cells; Conc. of Hcy 3.725, NAC 75 μM", "result": "1.890 and 2.003 and 1.784 and 1.946 and 1.958 and 1.801"}, {"measurement": "Absorbance at 490 nm", "setting": "SK-HEP-1 cells; Conc. of Hcy 6.250, NACCbl 30 μM, NAC 75 μM", "result": "1.678 and 1.789 and 1.897 and 1.899 and 1.933 and 1.905"}, {"measurement": "Absorbance at 490 nm", "setting": "SK-HEP-1 cells; Conc. of Hcy 12.500, NACCbl 30 μM, NAC 75 μM", "result": "1.675 and 1.232 and 1.339 and 1.590 and 1.602 and 1.622"}, {"measurement": "Absorbance at 490 nm", "setting": "SK-HEP-1 cells; Conc. of Hcy 25.000, NACCbl 30 μM, NAC 75 μM", "result": "1.345 and 1.501 and 1.632 and 1.378 and 1.226 and 1.447"}, {"measurement": "Absorbance at 490 nm", "setting": "SK-HEP-1 cells; Conc. of Hcy 50.000, NACCbl 30 μM, NAC 75 μM", "result": "0.890 and 0.821 and 1.034 and 1.227 and 0.799 and 1.045"}, {"measurement": "Absorbance at 490 nm", "setting": "SK-HEP-1 cells; Conc. of Hcy 100.000, NACCbl 30 μM, NAC 75 μM", "result": "0.789 and 0.842 and 0.743 and 0.589 and 0.490 and 0.799"}, {"measurement": "Absorbance at 490 nm", "setting": "SK-HEP-1 cells; Conc. of Hcy 200.000, NACCbl 30 μM, NAC 75 μM", "result": "0.567 and 0.668 and 0.623 and 0.490 and 0.721 and 0.788"}, {"measurement": "Absorbance at 490 nm, Mean", "setting": "SK-HEP-1 cells; SK-HEP-1, NACCbl 30 μM, NAC 75 μM, Hcy conc. 200.000, n = 6, label Hcy = Hcy alone", "result": 0.643}, {"measurement": "Mean (FIG. 14, protection of SK-HEP-1 cells from Hcy)", "setting": "SK-HEP-1 cells; [Hcy] 30 μM, [NAC] = 45 μM, [NACCbl] = 12.5 μM, [Folate] = 25 μM where named in the label, label Hcy/HCy = Hcy alone", "result": 1.296}, {"measurement": "Mean (FIG. 14a, protection of SK-HEP-1 cells from Hcy in the presence of folate)", "setting": "SK-HEP-1 cells; [2]", "result": 1.438}, {"measurement": "Absorbance at 490 nm, Mean", "setting": "SK-HEP-1 cells; as E80, Hcy conc. 0.000", "result": 2.494}, {"measurement": "Absorbance at 490 nm, Mean", "setting": "SK-HEP-1 cells; as E80, Hcy conc. 1.780", "result": 2.130}, {"measurement": "Absorbance at 490 nm, Mean", "setting": "SK-HEP-1 cells; as E80, Hcy conc. 3.125", "result": 1.897}, {"measurement": "Absorbance at 490 nm, Mean", "setting": "SK-HEP-1 cells; as E80, Hcy conc. 6.250", "result": 1.850}, {"measurement": "Absorbance at 490 nm, Mean", "setting": "SK-HEP-1 cells; as E80, Hcy conc. 12.500", "result": 1.510}, {"measurement": "Absorbance at 490 nm, Mean", "setting": "SK-HEP-1 cells; as E80, Hcy conc. 25.000", "result": 1.421}, {"measurement": "Absorbance at 490 nm, Mean", "setting": "SK-HEP-1 cells; as E80, Hcy conc. 50.000", "result": 0.969}, {"measurement": "Absorbance at 490 nm, Mean", "setting": "SK-HEP-1 cells; as E80, Hcy conc. 100.000", "result": 0.709}]}
{"smiles": "O.O.O=c1c(O)c(-c2ccc(O)c(O)c2)oc2cc(O)cc(O)c12", "note": "[Quercitin, 2-(3,4-Dihydroxyphenyl)-3,5,7-trihydroxy-4H-1-benzopyran-4-one dihydrate]", "values": [{"measurement": "Hsp70 gene expression", "setting": "Hsp70", "result": "inhibits"}, {"measurement": "Hsp32 gene expression", "setting": "Hsp32", "result": "does not inhibit"}]}
{"smiles": "C=CC1=C(C)c2cc3[n-]c(cc4[n-]c(cc5nc(cc1n2)C(C)=C5C=C)c(C)c4CCC(=O)O)c(CCC(=O)O)c3C.[Cl-].[Cl-].[Sn+4]", "note": "[Sn(IX) protoporphyrin, 8,13-Bis(vinyl)-3,7,12,17-tetramethyl-21H, 23H-porphine-2,18dipropionic acid tin(IV) dichloride]", "values": [{"measurement": "Hsp32 gene expression", "setting": "Hsp32", "result": "inhibited"}]}
